Each structure is given as a SMILES string.

The target of this assay is T1, human OX2R (Homo sapiens, UniProt O43614).
T1 construct: expressed in transfected cells; host or cells: CHO (Chinese hamster ovary) cells, grown under G418 selection
T1 sequence (O43614 1-444): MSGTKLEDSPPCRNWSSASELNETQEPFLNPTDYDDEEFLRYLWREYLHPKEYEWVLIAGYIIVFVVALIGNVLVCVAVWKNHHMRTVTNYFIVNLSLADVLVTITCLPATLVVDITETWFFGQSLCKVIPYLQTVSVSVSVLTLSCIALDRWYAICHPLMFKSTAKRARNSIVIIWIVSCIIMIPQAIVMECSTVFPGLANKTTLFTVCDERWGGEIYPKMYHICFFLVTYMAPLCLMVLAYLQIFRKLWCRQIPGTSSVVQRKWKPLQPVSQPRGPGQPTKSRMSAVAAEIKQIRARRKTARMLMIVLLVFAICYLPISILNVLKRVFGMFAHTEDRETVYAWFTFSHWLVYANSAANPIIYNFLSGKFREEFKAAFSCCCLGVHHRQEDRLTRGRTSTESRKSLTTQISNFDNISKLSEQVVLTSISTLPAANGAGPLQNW
The assay is described as follows: IPOne (IP-1) orexin receptor agonist assay in CHO cells expressing human OX2R. In kind it is cell-based. The note with it: IPOne assay, CHO cells expressing human OX2R, 2 hours incubation; read-out: hoX2R_IP IC50. The essentials: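 CHO cells with human OX2R treated 2 h at 37 °C with 10-point ½-log compound dilutions in stimulation buffer; IP-1 accumulation read by HTRF (665/620 nm) after 60 min detection. EC50 from four-parameter fit; % effect versus a 1 uM reference agonist.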
Take `COC(=O)N1[C@H](C(F)F)C[C@H](NS(=O)(=O)C(C)C)[C@@H]1COC1CCC2(c3ncc(F)cn3)CC2C1` (stereo partly drawn) [Example 120, methyl (2R,3S,5S)-5-(difluoromethyl)-2-(((6-(5-fluoropyrimidin-2-yl)bicyclo[4.1.0]heptan-3-yl)oxy)methyl)-3-((1-methylethyl)sulfonamido)pyrrolidine-1-carboxylate]: the IC50 (in general, the midpoint of a concentration-inhibition curve) was found to be 2.4 nM.
Then `CC(C)OC(=O)N1CCC[C@H](NS(=O)(=O)C(F)F)[C@@H]1CO[C@H]1CC[C@@]2(c3ncc(F)cn3)C[C@H]2C1` [Example 121, isopropyl (2R,3S)-3-((difluoromethyl)sulfonamido)-2-((((1S,3S,6R)-6-(5-fluoropyrimidin-2-yl)bicyclo[4.1.0]heptan-3-yl)oxy)methyl)piperidine-1-carboxylate], with 0.86 nM.
Consider `CC(C)OC(=O)N1CCC[C@H](NS(=O)(=O)C2CC2)[C@@H]1COC1CCC2(c3ncc(F)cn3)CC2C1` (stereo partly drawn) [Example 122, isopropyl (2R,3S)-3-(cyclopropanesulfonamido)-2-(((6-(5-fluoropyrimidin-2-yl)bicyclo[4.1.0]heptan-3-yl)oxy)methyl)piperidine-1-carboxylate], for which the half-inhibitory concentration (IC50) is 6.1 nM.
For `CC(C)OC(=O)N1CCC[C@H](NS(=O)(=O)C(F)(F)F)[C@@H]1COC1CC[C@@]2(c3ncc(F)cn3)CC2C1` (stereo partly drawn) [Example 123, isopropyl (2R,3S)-2-(((6-(5-fluoropyrimidin-2-yl)bicyclo[4.1.0]heptan-3-yl)oxy)methyl)-3-((trifluoromethyl)sulfonamido)piperidine-1-carboxylate], the IC50 is 4.1 nM.
For `CCS(=O)(=O)N[C@H]1CCCN(C(=O)OC(C)C)[C@H]1COC1CC[C@@]2(c3ncc(F)cn3)CC2C1` (stereo partly drawn) [Example 126, isopropyl (2R,3S)-3-(ethylsulfonamido)-2-(((6-(5-fluoropyrimidin-2-yl)bicyclo[4.1.0]heptan-3-yl)oxy)methyl)piperidine-1-carboxylate], the IC50 came out at 3.3 nM.
Consider `COC(=O)N1[C@@H]2CCC[C@@H]2[C@H](NS(=O)(=O)C2CC2)[C@@H]1COC1CCC2(c3ncc(F)cn3)CC2C1` (stereo partly drawn) [Example 128, methyl (2R,3S,3aS,6aR)-3-(cyclopropanesulfonamido)-2-(((6-(5-fluoropyrimidin-2-yl)bicyclo[4.1.0]heptan-3-yl)oxy)methyl)hexahydrocyclopenta[b]pyrrole-1(2H)-carboxylate], for which the IC50 stood at 1.8 nM.
Consider `CCS(=O)(=O)N[C@H]1[C@H]2CCC[C@H]2N(C(=O)OC)[C@H]1COC1CCC2(c3ncc(F)cn3)CC2C1` (stereo partly drawn) [Example 129, methyl (2R,3S,3aS,6aR)-3-(ethylsulfonamido)-2-(((6-(5-fluoropyrimidin-2-yl)bicyclo[4.1.0]heptan-3-yl)oxy)methyl)hexahydrocyclopenta[b]pyrrole-1(2H)-carboxylate], for which the IC50 worked out at 0.9 nM.
Then `COC(=O)N1[C@@H]2CCC[C@@H]2[C@H](NS(=O)(=O)CF)[C@@H]1COC1CCC2(c3ncc(F)cn3)CC2C1` (stereo partly drawn) [Example 130, methyl (2R,3S,3aS,6aR)-3-((fluoromethyl)sulfonamido)-2-(((6-(5-fluoropyrimidin-2-yl)bicyclo[4.1.0]heptan-3-yl)oxy)methyl)hexahydrocyclopenta[b]pyrrole-1(2H)-carboxylate], with 1.4 nM.
Then `COC[C@@H]1C[C@H](NS(C)(=O)=O)[C@H](CO[C@H]2CC[C@@]3(c4ncc(F)cn4)C[C@H]3C2)N1C(=O)OC` [Example 132, methyl (2R,3S,5S)-2-((((1S,3S,6R)-6-(5-fluoropyrimidin-2-yl)bicyclo[4.1.0]heptan-3-yl)oxy)methyl)-5-(methoxymethyl)-3-(methylsulfonamido)pyrrolidine-1-carboxylate], with 9.7 nM; and `COC(=O)N1[C@H](C)C[C@H](NS(C)(=O)=O)[C@@H]1COC1CCC2(c3ncc(F)cn3)CC2C1` (stereo partly drawn) [Example 135, methyl (2R,3S,5R)-2-(((6-(5-fluoropyrimidin-2-yl)bicyclo[4.1.0]heptan-3-yl)oxy)methyl)-5-methyl-3-(methylsulfonamido)pyrrolidine-1-carboxylate], with 6.3 nM.

For the origin of these results see US20230365533A1, “BICYCLOHEPTANE PYRROLIDINE OREXIN RECEPTOR AGONISTS” (MERCK SHARP & DOHME CORP., priority 2021, published 2023).
